Assay results published in patent US20060121449A1, “Method for selection of compounds which inhibit clonal cell growth and use thereof” (priority 2002, published 2006).
“Also recorded” adds a separate entry of the source.

Experiments:
[1] = test system: polyoma virus transformed BHK21/c13 cells, line S100T1; assay: Collocation inhibition test: clonal growth in sparsely and densely seeded areas of a cell density gradient of S100T1 cells in soft agar (Exp 13, 17, 19-26); details: for Significance: Exp 17 day 14; for Clonal growth, H high density area of cell gradient, High / Clonal growth, L low density area of cell gradient, High / Clonal growth, H high density area of cell gradient, Low / Clonal growth, L low density area of cell gradient, Low / Clonal growth, H high density area of cell gradient, Medium / Clonal growth, L low density area of cell gradient, Medium / Effect on cell cloning in soft agar: preliminary results; for Clonal growth, H high density area of cell gradient, High / Clonal growth, L low density area of cell gradient, High / Clonal growth, H high density area of cell gradient, Low / Clonal growth, L low density area of cell gradient, Low / Clonal growth, H high density area of cell gradient, Medium / Clonal growth, L low density area of cell gradient, Medium: Exp 13-18, 21-26; for Effect on cell cloning in soft agar: in words; for Resulting clonal growth of treated cultures: Experiment 26, read after 24 hours;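 as to Clonal growth, H high density area of cell gradient, High: grades rise with clonal growth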;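 as to Clonal growth, H high density area of cell gradient, Low: grades rise with clonal growth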;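 as to Clonal growth, H high density area of cell gradient, Medium: grades rise with clonal growth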;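 as to Clonal growth, L low density area of cell gradient, High: grades rise with clonal growth and minus or plus-minus means none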;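 as to Clonal growth, L low density area of cell gradient, Low: grades rise with clonal growth and minus or plus-minus means none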;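 as to Clonal growth, L low density area of cell gradient, Medium: grades rise with clonal growth and minus or plus-minus means none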;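 as to all read-outs here: soft agar cultures in 24-well plates with a cell density gradient in the top layer, compounds applied from DMSO stocks, clonal growth scored in sparse versus dense areas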
[2] = test system: polyoma virus transformed BHK21/c13 cells, clone S100T1; assay: Clonal test: clonal growth of S100T1 cells in soft agar (Exp 2, 4, 6, 15, 16); format: cell-based, hamster
Procedure: The clonal test comprises: • 1. seeding cells in soft agar optionally containing growth factor(s); • 2. handling or incubation of special gels (e.g. ultra low gelling temperature agarose), including the production of cell density gradients. • 3. incubating in suitable temperature and atmosphere and; • 4. regular monitoring of the cells and development of clones.
The clonal test can be directed in fluid medium or in soft agar medium. Usually only transformed cells will form clones in soft agar.
After seeding and mixing, the tubes were placed in the refrigerator for about 1 hour to consolidate the ultra low melting point agarose.
120000 S100T1 cells of a polyoma virus transformed BHK21/c13 cell line, were seeded in 1 ml soft agar medium in Falcon 50 ml centrifuge tubes. […] On the top of the agar layer 0.5 ml fluid medium was added.
Agar cultures were prepared in wells of 24 well Falcon tissue culture plate. […] Insulin (Actrapid, Novo) was added in a concentration of 0.1 i.u./ml to BHK21/c13 cell cultures only.
The cells were all single cells. Each well received 32000 cells (Table 4). Plate: 24 wells Falcon tissue culture plate received a bottom layer composed as in Table 3:
The cells were all single cells.
The wells contained two layers, each of 0.3 ml agar.
The agarose was added to double distilled water and solved by heating in micro oven.

[3] = Exp 15, 32000 S100T1 cells/well

In the case of `C[S+](C)[O-]` [DMSO], the “Effect on formation of clones at 4.7%” value ([1]; Exp 17) is reported as “inhibited formation of clones, but not completely”, the “Effect on formation of clones at 29.2 μl/700 μl or 4%” value ([1]; Exp 17) is reported as “inhibited formation of clones, but not completely” and the “Clonal growth, results read on the day 14” value (shortened to “Clonal growth, results read”) ([1]; Exp 17, a: close to densely seeded cell areas, Low: Colchicine 0.1, Podophyllotoxin 0.3, Etoposide 20, 4-OH—OPB 0.67 μM in wells, DMSO 1.16 μl) is reported as “++”. For the same molecule, the “Clonal growth, results read” value ([1]; Exp 17, a: close to densely seeded cell areas, Medium: Colchicine 0.3, Podophyllotoxin 0.9, Etoposide 60, 4-OH—OPB 2 μM in wells, DMSO 6.8 μl) was “++”, the “Clonal growth, results read” value ([1]; Exp 17, b: sparsely seeded areas in the same agar culture, Low: Colchicine 0.1, Podophyllotoxin 0.3, Etoposide 20, 4-OH—OPB 0.67 μM in wells, DMSO 1.16 μl) was “++” and the “Concentration up to which growth was approximately unaffected” value ([1]; Exp 17, soft agar cultures of S100T1) was “up to 1%”. For the same molecule, the “Growth inhibition at concentrations administered along with the test substances” value ([1]; Exp 19) was “did not show growth inhibition”, the Significance ([1]; a: close to densely seeded cell areas, High: Colchicine 1, Podophyllotoxin 3, Etoposide 200, 4-OH—OPB 6.7 μM in wells, DMSO 29.2 μl) was “Probably” and the Significance ([1]; a: close to densely seeded cell areas, Low: Colchicine 0.1, Podophyllotoxin 0.3, Etoposide 20, 4-OH—OPB 0.67 μM in wells, DMSO 1.16 μl) was “No”. For the same molecule, the Significance ([1]; a: close to densely seeded cell areas, Medium: Colchicine 0.3, Podophyllotoxin 0.9, Etoposide 60, 4-OH—OPB 2 μM in wells, DMSO 6.8 μl) was “No”, the Significance ([1]; b: sparsely seeded areas, High: Colchicine 1, Podophyllotoxin 3, Etoposide 200, 4-OH—OPB 6.7 μM in wells, DMSO 29.2 μl) was “Yes” and the Significance ([1]; b: sparsely seeded areas, Low: Colchicine 0.1, Podophyllotoxin 0.3, Etoposide 20, 4-OH—OPB 0.67 μM in wells, DMSO 1.16 μl) was “No”. For the same molecule, the Significance ([1]; b: sparsely seeded areas, Medium: Colchicine 0.3, Podophyllotoxin 0.9, Etoposide 60, 4-OH—OPB 2 μM in wells, DMSO 6.8 μl) was “No”.
For `O=C1NC(=O)C(c2ccccc2)(c2ccccc2)N1` [Diphenhydantoin], the “Effect on clonal growth at 10-100 μM” value [2, 3] was “did not inhibit clonal growth significantly”.
In the case of `O=c1[nH]cc(F)c(=O)[nH]1` [Fluorouracil, reference compound], the “Effect on clonal growth and toxicity” value ([1]; Exp 21, 117000 S100T1 cells/well) is reported as “relatively moderate inhibition of clonal growth and low toxicity independent of dosage”, the Clonal growth ([1]; Exp 21, 117000 cells per well, Low concentration (see figure), H: area with high cell density) is reported as “++” and the Clonal growth ([1]; Exp 21, High concentration, H: area with high cell density) is reported as “++”. The Clonal growth ([1]; Exp 21, High concentration, L: area with low cell density) was “+”, the Clonal growth ([1]; Exp 21, Low concentration, L: area with low cell density) was “+” and the Clonal growth ([1]; Exp 21, Medium concentration, H: area with high cell density) was “++”. For the same molecule, the Clonal growth ([1]; Exp 21, Medium concentration, L: area with low cell density) was “+”, the “Clonal growth, H high density area of cell gradient, High” value ([1]; high concentration) was “++” and the “Clonal growth, L low density area of cell gradient, High” value ([1]; high concentration) was “+”. For the same molecule, the “Clonal growth, H high density area of cell gradient, Low” value ([1]; low concentration) was “++”, the “Clonal growth, L low density area of cell gradient, Low” value ([1]; low concentration) was “+” and the “Clonal growth, H high density area of cell gradient, Medium” value ([1]; medium concentration) was “++”. The “Clonal growth, L low density area of cell gradient, Medium” value ([1]; medium concentration) was “+” and the “Effect on cell cloning in soft agar” value [1] was “Rel. moderate inhibition of clonal growth”.
With `CC(C)Cc1ccc(C(C)C(=O)O)cc1` (stereo not shown) [Ibuprofen] the “Effect on clonal growth at 100 μM” value [2, 3] was “insignificant inhibition”, the Significance of results ([2]; Exp 16, read after 14 days, Ibuprofen No 8, ca. 223 μM) was “possible” and the Significance ([2]; Exp 16 day 14, Ibuprofen No 8, 215 μM) was “possible”. The Growth ([2]; Exp 16 day 14, Ibuprofen No 8, 215 μM in wells) was “(+)”, the Growth ([2]; Exp 16 day 14, Ibuprofen No 8, 464 μM in wells) was “(+))” and the Significance ([2]; Exp 16 day 14, Ibuprofen No 8, 464 μM, doubtful because the solvent DMSO might be inhibiting) was “doubtful*”. For the same molecule, the Significance ([2]; Exp 16 day 21, Ibuprofen No 8, 215 μM) was “probable”, the Growth ([2]; Exp 16 day 21, Ibuprofen No 8, 215 μM in wells) was “(+))” and the Growth ([2]; Exp 16 day 21, Ibuprofen No 8, 464 μM in wells) was “(+))”. For the same molecule, the Significance ([2]; Exp 16 day 21, Ibuprofen No 8, 464 μM, *see conclusion (DMSO)) was “doubtful*”, the “Anti-clonal effect, summary of Exp 15” value ([2]; S100T1 in soft agar) was “showed possible clonal inhibition at low” and the “Anti-clonal effect, summary of Exp 16” value ([2]; S100T1 in soft agar) was “Ibuprofen and Naproxen possibly inhibited and Acetyl”.
In the case of `COc1c(C)c2c(c(O)c1C/C=C(\C)CCC(=O)O)C(=O)OC2` [Mycophenolic ac], the “Clonal growth after 48 hours incubation” value ([1]; Exp 19, high concentration, H: high cell density part of the gradient) is reported as “(+)”, the “Clonal growth after 48 hours incubation” value ([1]; Exp 19, high concentration, L: low cell density part of the gradient) is reported as “(+)” and the “Clonal growth after 48 hours incubation” value ([1]; Exp 19, low concentration (exact conc. only in figure), H: high cell density part of the gradient) is reported as “(+)”. For the same molecule, the “Clonal growth after 48 hours incubation” value ([1]; Exp 19, low concentration, L: low cell density part of the gradient) was “(+)”, the “Clonal growth after 48 hours incubation” value ([1]; Exp 19, medium concentration, H: high cell density part of the gradient) was “(+)” and the “Clonal growth after 48 hours incubation” value ([1]; Exp 19, medium concentration, L: low cell density part of the gradient) was “(+)”.
With `COc1c(C)c2c(c(O)c1C/C=C(\C)CCC(=O)O)C(=O)OC2` [Mycophenolic acid, reference compound] the “Clonal growth, H high density area of cell gradient, High” value ([1]; high concentration) was “(+)”, the “Clonal growth, L low density area of cell gradient, High” value ([1]; high concentration) was “(+)” and the “Clonal growth, H high density area of cell gradient, Low” value ([1]; low concentration) was “(+)”. For the same molecule, the “Clonal growth, L low density area of cell gradient, Low” value ([1]; low concentration) was “(+)”, the “Clonal growth, H high density area of cell gradient, Medium” value ([1]; medium concentration) was “(+)” and the “Clonal growth, L low density area of cell gradient, Medium” value ([1]; medium concentration) was “(+)”. The “Effect on cell cloning in soft agar” value [1] was “Less growth in both high and low”.
For `CC1=C(CC(=O)O)c2cc(F)ccc2/C1=C\c1ccc([S+](C)[O-])cc1` (stereo not shown) [Sulindac, reference compound], the “Effect on clonal growth of sparsely seeded cells, low dose” value ([1]; Exp 26) was “clone-inducing effect”, the “Effect on clonal growth, high dose” value ([1]; Exp 26, 172800 S100T1 cells/well) was “weak anti-cloning effect on sparsely seeded cells; also recorded: abrogated this effect. It is considered logic” and the “Resulting clonal growth of treated cultures” value (“Resulting clonal growth” for short) ([1]; H: area with high cell density, High concentration) was “++”. The “Resulting clonal growth” value ([1]; H: area with high cell density, Low concentration) was “++(+)”, the “Resulting clonal growth” value ([1]; H: area with high cell density, Medium concentration) was “++” and the “Resulting clonal growth” value ([1]; L: area with low cell density, High concentration) was “+”. The “Resulting clonal growth” value ([1]; L: area with low cell density, Low concentration) was “+++”, the “Resulting clonal growth” value ([1]; L: area with low cell density, Medium concentration) was “++” and the “Clonal growth, H high density area of cell gradient, High” value ([1]; high concentration) was “++”. The “Clonal growth, L low density area of cell gradient, High” value ([1]; high concentration) was “+”, the “Clonal growth, H high density area of cell gradient, Low” value ([1]; low concentration) was “++(+)” and the “Clonal growth, L low density area of cell gradient, Low” value ([1]; low concentration) was “+++”. The “Clonal growth, H high density area of cell gradient, Medium” value ([1]; medium concentration) was “++”, the “Clonal growth, L low density area of cell gradient, Medium” value ([1]; medium concentration) was “++” and the “Effect on cell cloning in soft agar” value [1] was “Possible clonal stimulation at low”.
`CN(Cc1cnc2nc(N)nc(N)c2n1)c1ccc(C(=O)N[C@@H](CCC(=O)O)C(=O)O)cc1` [methotrexate, Methotrexate, reference compound] was tested, and the Effect on growth ([1]; Exp 23, 180000 S100T1 cells/well) was “did not show significant growth inhibition at all”, the Clonal growth ([1]; Experiment 23, A (area with high cell density), High concentration, 48 hours) was “+(+)” and the Clonal growth ([1]; Experiment 23, A (area with high cell density), Low concentration, 48 hours) was “++”. The Clonal growth ([1]; Experiment 23, A (area with high cell density), Medium concentration, 48 hours) was “++”, the Clonal growth ([1]; Experiment 23, B (area with low cell density), High concentration, 48 hours) was “+” and the Clonal growth ([1]; Experiment 23, B (area with low cell density), Low concentration, 48 hours) was “+”. For the same molecule, the Clonal growth ([1]; Experiment 23, B (area with low cell density), Medium concentration, 48 hours) was “+(+)”.
In the case of “Somatotropin: growth hormone tested for clonal stimulation”, the “Effect on clonal growth” value ([1]; Exp 25, 48 hours incubation) is reported as “seemed to create some large colonies”, the Clonal growth ([1]; Experiment 25, H: area with high cell density, High concentration, after 48 hours incubation) is reported as “++” and the Clonal growth ([1]; Experiment 25, H: area with high cell density, Low concentration, after 48 hours incubation) is reported as “++(+)”. For the same molecule, the Clonal growth ([1]; Experiment 25, H: area with high cell density, Medium concentration, after 48 hours incubation) was “++(+)”, the Clonal growth ([1]; Experiment 25, L: area with low cell density, High concentration, after 48 hours incubation) was “++” and the Clonal growth ([1]; Experiment 25, L: area with low cell density, Low concentration, after 48 hours incubation) was “++(+)”. The Clonal growth ([1]; Experiment 25, L: area with low cell density, Medium concentration, after 48 hours incubation) was “++(+)”, the “Clonal growth, H high density area of cell gradient, High” value ([1]; high concentration) was “++” and the “Clonal growth, L low density area of cell gradient, High” value ([1]; high concentration) was “++”. The “Clonal growth, H high density area of cell gradient, Low” value ([1]; low concentration) was “++(+)”, the “Clonal growth, L low density area of cell gradient, Low” value ([1]; low concentration) was “++(+)” and the “Clonal growth, H high density area of cell gradient, Medium” value ([1]; medium concentration) was “++(+)”. For the same molecule, the “Clonal growth, L low density area of cell gradient, Medium” value ([1]; medium concentration) was “++(+)”.
